Test results taken from US10676461B2, “Heterocyclic compound” (TAKEDA PHARMACEUTICAL COMPANY LIMITED, priority 2016, dated 2020).

System: sphingomyelin in the cerebral cortex
Assay: Efficacy evaluation test using sphingomyelin accumulation model mouse (Niemann-Pick disease type A and type B model)
Type: in vivo, mouse (C57BL/6J Jcl)
Conditions: for Amount of sphingomyelin per wet weight of cerebral cortex: twice daily, 2 wk, imipramine hydrochloride 40 mg/kg i.p. once daily, 4 wk, male mouse, Mean ± S.D., N = 7-8
Excerpt: Test Example 4 Efficacy Evaluation Test Using Sphingomyelin Accumulation Model Mouse as Niemann-Pick Disease Type A and Type B Model
A phase 1b clinical trial on Niemann-Pick disease type B which develops by abnormality in acid sphingomyelinase has reported that the administration of recombinant acid sphingomyelinase (olipudase alfa) decreased sphingomyelin accumulated in a peripheral organ such as the liver, and this led to the amelioration of the pathological condition (Am J Surg Pathol. 2016; 40: 1232).
Also, the intraperitoneal administration of an acid sphingomyelinase inhibitor, imipramine hydrochloride, to a mouse increases its enzyme substrate, sphingomyelin, not only in a peripheral organ such as the liver but in the central nervous system such as the cerebrum, and the mouse obtained by such administration is recognized as an animal model that can induce sphingomyelin accumulation, as in human Niemann-Pick disease type A and type B, in each tissue (Gen Physiol Biophys 2016; 35: 195).
Accordingly, the compound of the present invention was evaluated as a SPT inhibitor for its sphingomyelin-lowering effect on Niemann-Pick disease type B, and Niemann-Pick disease type A, which also accumulates sphingomyelin in the central nervous system such as the cerebral cortex, by the following method. Imipramine hydrochloride (Wako Pure Chemical Industries, Ltd.) was dissolved at a concentration of 2 mg/mL in saline and intraperitoneally administered at a dose of 40 mg/kg to each 6-week-old male C57BL/6J Jcl mouse (CLEA Japan, Inc.) for 2 weeks once daily. […] In this operation, the intraperitoneal administration of imipramine hydrochloride was also carried out once daily concurrently therewith. After the completion of the administration of the SPT inhibitor, the cerebrum was excised from the mouse cranium and separated into the cortex and the medulla. The cortical portion was rapidly frozen in liquid nitrogen and then disrupted using ShakeMaster Auto (Bio-Medical Science Co., Ltd.) under freezing. 2-Propanol (containing 0.002% of BHT (dibutylhydroxytoluene as a fat and oil antioxidant) was added thereto in an amount of 9 mL/g of wet weight, and lipids in the cerebral cortex were extracted by suspension using ShakeMaster Auto again. The concentration of sphingomyelin contained in the 2-propanol was measured using a sphingomyelin assay kit (Abcam, Inc., ab138877) based on the fluorescence quantification method. EnVision 2102 Multilabel Reader (PerkinElmer Inc.) was used in fluorescence measurement.
From this, it was able to be confirmed that a model mimicking Niemann-Pick disease type A and type B which accumulate sphingomyelin in the cerebral cortex was established by the intraperitoneal administration of imipramine hydrochloride for 4 weeks.

Question: For Cn1nc(C(=O)N[C@@H]2CCN(C(=O)c3cc(Cl)c4nccnc4c3)C[C@@H]2c2ccc(F)cc2)cc1C(F)(F)F [Example 1, N-((3S,4R)-1-((8-Chloroquinoxalin-6-yl)carbonyl)-3-(4-fluorophenyl)piperidin-4-yl)-1-methyl-5-(trifluoromethyl)-1H-pyrazole-3-carboxamide], which “Amount of sphingomyelin per wet weight of cerebral cortex” value (group 3: 0.3 mg/kg oral) is on record?
Answer: 3.282 ± 0.260 µg/g

Question: And the “Amount of sphingomyelin per wet weight of cerebral cortex” value (group 4: 1.0 mg/kg oral)?
Answer: 2.972 ± 0.635 µg/g

Question: What about the “Amount of sphingomyelin per wet weight of cerebral cortex” value (group 5: 3.0 mg/kg oral) of the same compound?
Answer: 2.952 ± 0.219 µg/g

Question: What about the “effect of suppressing sphingomyelin accumulation in the cerebral cortex” value (oral, 2 weeks twice daily, single dose 0.3, 1.0 and 3.0 mg/kg, imipramine model mouse, p<0.025, one-tailed Williams' test) of the same compound?
Answer: dose-dependent significant effect of suppressing sphingomyelin accumulation in the cerebral cortex
